This note sets out measurements from patent US20140037574A1, “PHARMACEUTICAL COMPOSITION” (priority 2010, published 2014).

The target of the data set is CYP3A4 (Homo sapiens, UniProt P08684). Briefly: in vitro. Conditions: for inhibition at 10 min: human, microsomes, pH 7.4; for IC50: HLM, felodipine at its Km as substrate. The method, then: G6PDH (40 U/mL) was prepared in 5 mM sodium citrate solution and stored at −20° C. until use. […] The preparation of NRS was completed right before use. It was made such that on addition to the HLM incubation mixture, it contained 2.6 mM NADP', 6.7 mM G6P, […] and 0.8 U/ml G6PDH.
CYP3A4, sequence (P08684 whole entry): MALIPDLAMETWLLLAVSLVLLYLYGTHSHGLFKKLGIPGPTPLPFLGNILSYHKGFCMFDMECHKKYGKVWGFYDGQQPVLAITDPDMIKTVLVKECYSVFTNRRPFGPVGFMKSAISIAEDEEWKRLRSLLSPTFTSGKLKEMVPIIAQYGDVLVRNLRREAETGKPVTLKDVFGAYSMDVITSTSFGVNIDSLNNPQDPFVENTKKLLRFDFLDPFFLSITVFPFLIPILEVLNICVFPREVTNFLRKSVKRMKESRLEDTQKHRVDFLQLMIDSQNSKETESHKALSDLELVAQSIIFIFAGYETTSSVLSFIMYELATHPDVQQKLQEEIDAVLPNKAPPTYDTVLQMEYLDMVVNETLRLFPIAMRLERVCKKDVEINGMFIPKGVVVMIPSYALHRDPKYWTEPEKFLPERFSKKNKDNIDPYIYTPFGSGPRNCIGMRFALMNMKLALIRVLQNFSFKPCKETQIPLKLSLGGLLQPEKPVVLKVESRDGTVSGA
Substrate (felodipine) solutions were prepared over a range of 0.01-100.0 mM in acetonitrile. […] This was kept on ice until use.
The reaction was halted by a stop solution made of cooled acetonitrile (−20° C.).
Supernatants were filtered through […] and analysed by the UPLC method developed in order to quantify the extent of felodipine metabolism. The rate of metabolism, determined as the rate of disappearance of substrate, was profiled against the substrate concentration to determine the enzyme kinetic parameters.
Felodipine at its determined Km was incubated in HLM as described above except for the addition of inhibitors. […] Supernatants were analysed using the developed UPLC method. […] Another control was incubated without inhibitors to allow for maximum metabolism. […] At higher concentrations, the effect of acetonitrile on enzymatic activity could be significant. It is therefore recommended that not >1% acetonitrile should be included in the incubation mixture. […] The final concentration of acetonitrile in the incubation mixture was 1%.
Their inhibitory effects were investigated on microsomal metabolism of felodipine. The potencies of the inhibitors were measured as their IC50 values determined through non-linear regression of the percentage inhibition of felodipine metabolism against inhibitor concentration. […] The concentration of felodipine in incubation mixtures containing the various inhibitors and the modelled pre-systemic enzymatic modulators was determined and the extent of metabolism was measured as percentage of control.

Compound `O=C1C[C@@H](c2ccc(O)cc2)Oc2cc(O)cc(O)c21` [Naringenin, naringenin] yielded an inhibition at 10 min of 95%. Regarding `C[C@@H]1O[C@@H](O[C@H]2[C@H](Oc3cc(O)c4c(c3)O[C@H](c3ccc(O)cc3)CC4=O)O[C@H](CO)[C@@H](O)[C@@H]2O)[C@H](O)[C@H](O)[C@H]1O` [Naringin, naringin], the inhibition at 10 min turned out to be 98%. This compound also showed an IC50 (IC50 (mg/mL)) of 178 µM. The IC50 (IC50 (μM), Table 1) was found to be 178 µM. Regarding `O=c1c(O)c(-c2ccc(O)c(O)c2)oc2cc(O)cc(O)c12` [Quercetin, quercetin], the inhibition at 10 min came to 98%.
